In US20060020036A1, “Methods and compositions to promote bone homestasis” (priority 2004, published 2006):
Entries after “also recorded” stand apart in the source; their conditions may differ.

Columns and labels:
GPR65 = target: T1, GPR65 (Homo sapiens, UniProt Q8IYL9); test: AP assay: MPCs infected with Ad-GPR65 and treated with ligand; format: cell-based; conditions: ligand at different concentrations
T1 construct: amplification of the complete open reading frame from ATG start codon to the stop codon of drugable genes; expressed in transfected cells; host or cells: primary human mesenchymal progenitor cells (MPCs), transduced with Ad-GPR65 and Ad-hCAR
Description: These dose-response curves are depicted in FIG. 5. A dose-response curve for AP activity is generated for MPCs infected with Ad-NR1H3 and treated with T0901317 (FIG. 5A). MPCs are seeded on day 0 at 1000 cells per well of a 384 well plate and co-infected the next day using AdC51-hCAR (MOI 250) and different MOIs of Ad5-NR1H3 (MOI 12000, 4000, 1333, 444). On day 1, 5 concentrations (1E-10M, 1E-9M, 1E-8M, 1E-7M, 1E-6M) of the compound T0901317 (Cayman Chemical, Michigan, USA, Cat. No. 71810) with fixed vehicle concentration (the vehicle is DMSO at the concentration is 0.01%) are added to the wells. After incubation for 6 days at 37° C., 10% CO2 in a humidified incubator, up-regulation of alkaline phosphatase is read: 15 μl MUP is added to each well, the plates are incubated for 15 min at 37° C. and monitored for AP activity using a fluorescence plate reader (Fluostar, BMG).
Dose-response curves for AP activity are generated in a similar way for MPCs infected with Ad-GPR65 and treated with 1-b-D-Galactosylsphingosine (FIG. 5B); for MPCs infected with Ad-AVPR2 and treated with [deamino-Cysl, D-Arg8]-Vasopressin (DDAVP) (FIG. 5C).

NR5A2 mRNA = test: Up-regulation of NR5A2 and NR1H3 mRNA levels by osteogenic triggers in MPCs; format: cell-based, human; conditions: final concentration 0.1 μM, vs vehicle, several time points
Description: 100,000 MPCs are seeded in each well of a 6 well plate in 2 ml MPC medium, containing 10% FCS. The next day, after incubation at 37° C., 10% CO2 in a humidified incubator, cells are co-infected with AdC15-hCAR (final MOI of 750) and Ad-BMP2, Ad-RUNX2, Ad-MSX2, Ad-PTHR1/PTHLH or Ad-eGFP or Ad-luciferase as negative controls (final MOIs of 1250 and 2500). Alternatively, cells are treated with dexamethasone (final concentration 0.1 μM), VitD3 (final concentration 0.1 μM) or the vehicle controls (0.1% EtOH or DMSO). Cells are incubated at 37° C., 10% CO2 in a humidified incubator for a further six days unless cells are already harvested for RNA isolation. Virus is removed and replaced by 2 ml fresh OS medium (proprietary medium containing 10% FCS). Over the next 18 days, medium is refreshed 3 times per 2 weeks. Every other time, medium is refreshed half or completely. […] The fold up-regulation of NR5A2 or NR1H3 mRNA compared to negative controls (vehicle for dexamethasone or VitD3 treatment) or Ad-luciferase for Ad-infections) is calculated (FIG. 16).

[1] = test system: calvarial skull bones (hemicalvaria); test: Calvarial skull assay (bone organ culture); format: cell-based, CD1 mice
Description: CD1 pups are harvested around birth from CD1 female mice (received from Janvier (Le Genest St Isle, France) when they were 11 days pregnant). Pups are decapitated and the calvarial skull is dissected and split into 2 hemicalvaria. Hemicalvaria are blotted using sterile gauze, weighed and cultured in 24 well plates (MEMalpha or BGJb-Fitton-Jackson medium containing 50 μg/ml L-ascorbic acid (Sigma, A-4034), 5 mM β-glycerophosphate (Sigma, G-9891) and Penicillin-Streptomycin (Invitrogen Cat # 15140-122)). Small molecules (ligands, agonists, antagonists) are tested in at least three-fold at a minimum of 3 concentrations. Each small molecule is added to the medium on day 0 and added again when refreshing the medium (every 2-3 days). Three to 16 days after the start of the experiment, skulls are weighed again after blotting them dry using sterile gauze. The weight difference is calculated, expressed as percent weight change and the mean and standard deviations (SD) are calculated for the triplicate measurements. Data are analyzed using the Student's t-test.
The formation of new osteoid is analyzed histologically as follows: hemicalvaria are fixed in 10% buffered formalin for at least 2 days, decalcified in 10% EDTA overnight, processed through graded alcohols and embedded in paraffin wax. Three to 10 μm sections are prepared of the calvaria and stained with hematoxylin and eosin (H&E). Healthy cells, dead cells, old and new bone, and collagen are identified by their distinctive morphology and colouring observed after H&E staining. The surfaces taken by these are measured stereologically (μm^2 readout) and termed Osteoblast area, Debris area, Native and New bone area, Collagen area and Total area (sum of the previous 5 areas), respectively. In addition, the thickness (μm readout) is measured at 8 positions, evenly spaced over the section.
The histological readout of the calvarial skull assay is developed using known osteogenic agents. Hemicalvaria were treated with recombinant human parathyroid hormone (rhPTH).
T0901317 is added to the culture medium of the dissected hemicalvaria at the day of dissection at several doses (19.5, 78.1 and 313 nM), in fourfold. The concentration of the solvent (vehicle), DMSO, is fixed at a final concentration of 0.05%. The medium, containing T0901317 or vehicle control is refreshed every 2-3 days. Hemicalvaria are harvested 7 days after the initiation of the experiment and subjected to the histological analysis described above.

T1 sequence (Q8IYL9 whole entry): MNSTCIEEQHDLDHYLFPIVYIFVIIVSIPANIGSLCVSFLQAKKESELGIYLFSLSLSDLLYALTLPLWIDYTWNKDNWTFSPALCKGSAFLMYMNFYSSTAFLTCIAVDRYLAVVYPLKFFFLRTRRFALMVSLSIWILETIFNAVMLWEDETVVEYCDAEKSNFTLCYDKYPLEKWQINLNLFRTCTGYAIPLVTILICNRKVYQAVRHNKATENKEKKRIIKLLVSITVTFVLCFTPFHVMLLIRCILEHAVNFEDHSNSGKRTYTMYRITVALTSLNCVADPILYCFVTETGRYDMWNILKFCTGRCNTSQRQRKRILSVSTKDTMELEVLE

`CCCCCCCCCCCCCC=CC(O)C(N)CO[C@@H]1O[C@H](CO)[C@H](O)[C@H](O)[C@H]1O` (stereo partly drawn) [1-b-D-Galactosylsphingosine] was tested. Which “up-regulation of endogenous alkaline phosphatase (AP) activity, dose-response” value (GPR65) did it give?
Its value is “dose-dependently increase the up-regulation of the endogenous alkaline phosphatase activity; also recorded: dose-dependent up-regulation of AP activity”.

`C=C1CC[C@H](O)C/C1=C/C=C1\CCC[C@]2(C)[C@@H]([C@H](C)CCCC(C)C)CC[C@@H]12` [VitD3] was tested. Which “NR5A2 mRNA levels” value (NR5A2 mRNA) did it give?
Its value is “up-regulated”.

B1: PTH: recombinant human parathyroid hormone, known osteogenic agent (protein, UniProt P01270 32-115, looked up)
Parathyroid hormone: SVSEIQLMHNLGKHLNSMERVEWLRKKLQDVHNFVALGAPLAPRDAGSQRPRKKEDNVLVESHEKSLGEADKADVNVLTKAKSQ
modifications: Parathyroid hormone
notes: recombinant human parathyroid hormone, known osteogenic agent
Which results are given for B1?
effect on bone tissue ([1]; 10^−7 M): resorptive effect on bone tissue; effect on bone tissue ([1]; 10^−11 M): induces bone build-up
